Read-outs that look alike come from different tables or passages of the source.
Assays:
mice = test: effect of stimulating hair growth in dehaired mice; assay type: in vivo; conditions: 1.0 wt % in water/ethanol/1,3-butylene glycol, 150 μl/day applied on back for 21 days; newly grown hair
Description: To evaluate the adamantane derivatives according to the present disclosure for the effect of stimulating hair growth, each of the adamantane derivatives according to Examples 1-10 is dissolved into a solvent including water/ethanol/1,3-butylene glycol (5/3/2) to a concentration of 1.0 wt %. Next, mice 47-53 days after the birth are dehaired on their backs. Then, mice whose skins on the back portions are clear are selected and grouped by 8 mice per group. Each adamantane derivative having a concentration of 1.0 wt % is applied to each mouse every day in an amount of 150 μl/day for 21 days. After 21 days, newly grown hair is weighed and the weight is compared with negative control.

[1] = system: Rat-derived follicle dermal papilla cells; test: growth of dermal papilla cells (MTT); assay type: cell-based; conditions: 10 μg/ml, 48 hours, MTT absorbance at 570 nm relative to DMSO control (100), read-out: Ratio (%) of growth of dermal papilla cells
Description: Rat-derived follicle dermal papilla cells cultured in Dulbecco's modified Eagle's media (DMEM) containing 2% of fetal bovine serum are dispensed to a 96-well microtiter plate to 1,000 cells/well. As positive control, minoxidil diluted to a concentration of 10 μg/ml is added. Each of the adamantane derivatives according to Examples 1-10 diluted to a concentration of 10 μg/ml is added, followed by culturing at 37° C. for 48 hours. After culturing, 0.2% 3-[4,5-dimethylthiazol-2-yl]-2,5-diphenyltetrazolium bromide (MTT) solution is added to each well in an amount of 50 μl, followed by culturing at 37° C. for 4 hours. Then, the produced formazane is dissolved with dimethyl sulfoxide (DMSO). A microplate reader is used to determine the absorbance of the dissolved formazane at 570 nm. The absorbance is compared with the absorbance of control treated with DMSO solution alone and the ratio (%) of growth of dermal papilla cells is evaluated based on the relative difference.

androgen receptor (AR) = target: T1, androgen receptor (AR) (Homo sapiens, UniProt P10275, T878A); test: competitive steroid binding assay ([3H] methyltrienolone displacement)
T1 construct: wild type androgen receptor (AR) is obtained by isolating cytoplasm fraction from LNCaP cell line; host or cells: LNCaP cytoplasm fraction
T1 sequence (P10275 1-920 T878A): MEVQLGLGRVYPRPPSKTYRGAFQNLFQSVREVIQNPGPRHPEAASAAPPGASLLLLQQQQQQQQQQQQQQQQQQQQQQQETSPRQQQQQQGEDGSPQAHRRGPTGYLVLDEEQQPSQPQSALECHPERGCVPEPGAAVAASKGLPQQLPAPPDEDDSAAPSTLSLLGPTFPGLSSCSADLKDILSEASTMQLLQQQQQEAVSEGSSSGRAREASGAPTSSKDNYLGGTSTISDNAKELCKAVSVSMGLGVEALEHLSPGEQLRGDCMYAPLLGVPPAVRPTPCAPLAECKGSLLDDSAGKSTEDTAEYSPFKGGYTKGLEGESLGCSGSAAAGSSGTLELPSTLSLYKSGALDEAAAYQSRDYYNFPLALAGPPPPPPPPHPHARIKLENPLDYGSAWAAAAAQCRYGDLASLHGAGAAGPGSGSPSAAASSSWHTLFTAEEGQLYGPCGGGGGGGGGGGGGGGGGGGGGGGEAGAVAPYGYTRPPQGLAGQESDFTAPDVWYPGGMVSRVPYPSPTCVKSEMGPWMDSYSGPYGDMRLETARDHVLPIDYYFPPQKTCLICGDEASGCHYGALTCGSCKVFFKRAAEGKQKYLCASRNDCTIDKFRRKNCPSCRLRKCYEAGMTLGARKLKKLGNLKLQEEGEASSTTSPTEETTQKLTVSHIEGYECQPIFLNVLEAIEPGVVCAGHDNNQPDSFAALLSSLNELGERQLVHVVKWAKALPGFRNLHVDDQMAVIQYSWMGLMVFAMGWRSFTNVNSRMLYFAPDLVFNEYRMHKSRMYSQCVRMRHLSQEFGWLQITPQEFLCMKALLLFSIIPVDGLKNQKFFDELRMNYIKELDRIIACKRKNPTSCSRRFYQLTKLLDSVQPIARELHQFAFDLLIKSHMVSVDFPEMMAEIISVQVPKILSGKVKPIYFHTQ
Description: This assay determines whether or not the adamantane derivative according to the present disclosure is bound to androgen receptor (AR) competitively with methyltrienolone, which is an agonist to androgen receptor.
Such competitive steroid binding assay is carried out by introducing tritium-labeled methyltrienolone as a ligand for androgen receptor, introducing test samples non-labeled with radio isotope thereto at a different concentration, and checking whether or not the test samples are bound to androgen receptor competitively with the ligand, methyltrienolone. In this manner, the test samples are evaluated for their anti-androgenic effects. Herein, the level of the remaining isotope, tritium, is measured to determine whether or not the test samples are bound to androgen receptor competitively with the ligand, methyltrienolone.
Particularly, wild type androgen receptor (AR) is obtained by isolating cytoplasm fraction from LNCaP cell line (ATCC® CRL-1740™). […] The reaction is carried out at 4° C. for 24 hours and the reaction mixture is filtered and washed. Then, radio activity is measured in each ligand bound to the receptor.

[2] = system: male and female subjects suffering from excessive secretion of sebum; test: effect of inhibiting secretion of sebum (Sebumeter SM810); assay type: in vivo; conditions: nourishing cream including the compound applied every day
Description: The following test is carried out to evaluate the adamantane derivatives according to Examples 1-10 for the effect of inhibiting secretion of sebum. Twenty male and female subjects suffering from excessive secretion of sebum are selected and allowed to apply nourishing cream including each of Examples 1-10 and nourishing cream of negative control every day at a predetermined site for 4 weeks. Then, Sebumeter SM810 (C&K Electronic Co., Germany) is used to determine the average ratio (%) of decrease in sebum after 2 weeks and 4 weeks.

[3] = wild type AR from LNCaP cytoplasm fraction, [3H] methyltrienolone, 4° C. for 24 hours

IC50 (androgen receptor (AR); [3]) [µM] | Structure (SMILES) | Hair weight (mice) [mg] | activity at 10 µg/mL [1] [%] | IC50 (androgen receptor (AR)) [µM] | Ratio (%) of decrease in sebum After 2 weeks [2] [%] | Ratio (%) of decrease in sebum After 4 weeks [2] [%]
– | N#Cc1ccc(NC(=O)C23CC4CC(CC(C4)C2)C3)cc1C(F)(F)F [Comp. Ex. 1, Adamantan-1-carboxylic acid-(4-cyano-3-trifluoro-phenyl)amide, reference compound] | 59 ± 12 | 114 | 11.4 | 16.5 | 26.2
1.2 | Cc1cc(NC(=O)C23CC4CC(CC(C4)C2)C3)ccc1[N+](=O)[O-] [Example 1, Adamantan-1-carboxylic acid-(3-methyl-4-nitrophenyl)-amide] | 77 ± 11 | 124 | – | 21.5 | 35.2
0.24 | COc1cc(NC(=O)C23CC4CC(CC(C4)C2)C3)ccc1[N+](=O)[O-] [Example 2, Adamantan-1-carboxylic acid-(3-methoxy-4-nitrophenyl)-amide] | 74 ± 9 | 124 | – | 19.4 | 28.8
1.4 | O=C(Nc1ccc([N+](=O)[O-])cc1Cl)C12CC3CC(CC(C3)C1)C2 [Example 4, Adamantan-1-carboxylic acid-(2-chloro-4-nitrophenyl)-amide] | 75 ± 10 | 130 | – | 20.7 | 29.7
2.2 | COc1cc(NC(=O)C23CC4CC(CC(C4)C2)C3)ccc1C#N [Example 5, Adamantan-1-carboxylic acid-(4-cyano-3-methoxy-phenyl)-amide] | 71 ± 14 | 145 | – | 18.7 | 32.8
2.4 | N#Cc1ccc(NC(=O)C23CC4CC(CC(C4)C2)C3)c(Cl)c1 [Example 6, Adamantan-1-carboxylic acid-(4-cyano-2-chloro-phenyl)-amide] | 67 ± 12 | 124 | – | 17.4 | 31.4
1.9 | Cc1cc(C(=O)NC23CC4CC(CC(C4)C2)C3)ccc1[N+](=O)[O-] [Example 7] | 68 ± 8 | 123 | – | 18.1 | 29.8
0.74 | COc1cc(C(=O)NC23CC4CC(CC(C4)C2)C3)ccc1[N+](=O)[O-] [Example 8] | 70 ± 14 | 125 | – | 19.8 | 33.7
14.8 | COc1cc(NC(=O)C23CC4CC(CC(C4)C2)C3)ccc1F [Example 17, Adamantan-1-carboxylic Acid (4-fluoro-3-methoxyphenyl)amide] | – | – | – | – | –
5.3 | COc1cc(NC(=O)C23CC4CC(CC(C4)C2)C3)ccc1Br [Example 19, Adamantan-1-carboxylic Acid (4-bromo-3-methoxyphenyl)amide] | – | – | – | – | –
13.5 | O=C(Nc1cccc([N+](=O)[O-])c1)C12CC3CC(CC(C3)C1)C2 [Example 23, Adamantan-1-carboxylic Acid (3-nitrophenyl)amide] | – | – | – | – | –
1.2 | COc1cc([N+](=O)[O-])ccc1NC(=O)C12CC3CC(CC(C3)C1)C2 [Example 25, Adamantan-1-carboxylic Acid (2-methoxy-4-nitrophenyl)amide] | – | – | – | – | –
– | Nc1cc(N2CCCCC2)nc(N)[n+]1[O-] [minoxidil, reference compound] | – | 120 | – | – | –

Structure (SMILES) | IC50 (androgen receptor (AR); [3]) [µM] | Hair weight (mice) [mg] | activity at 10 µg/mL [1] [%] | IC50 (androgen receptor (AR)) [µM] | Ratio (%) of decrease in sebum After 2 weeks [2] [%] | Ratio (%) of decrease in sebum After 4 weeks [2] [%]
O=C(Nc1ccc([N+](=O)[O-])c(Cl)c1)C12CC3CC(CC(C3)C1)C2 [Example 3, Adamantan-1-carboxylic acid-(3-chloro-4-nitrophenyl)-amide] | 0.44 | 72 ± 6 | 118 | – | 18.1 | 27.6

— patent publication US10696611B2, “Adamantane derivative compound” (AMOREPACIFIC CORPORATION, priority 2014, dated 2020)
